Experimental data from ChEMBL document CHEMBL4831545, “Hormesis Effect of Berberine against Klebsiella pneumoniae Is Mediated by Up-Regulation of the Efflux Pump KmrA” (J Nat Prod, 2021).

Experiments:
Klebsiella pneumoniae [1] = assay: Hormesis activity against Klebsiella pneumonia assessed as promotion of bacterial growth by measuring prolonged logarithmic growth phase at 3 to 6 ug/ml measured from 840 to 1440 mins by OD600 based analysis; assay type: organism-based; conditions: in vivo, dose lower 3 µg/ml, time lower 840 min, dose upper 6 µg/ml, time upper 1440 min
[2] = Upregulation of efflux pump regulator promoter activity in Klebsiella pneumoniae assessed as increase in beta-galactosidase activity at 50 ug/ml by LacZ based OD600 analysis relative to control; assay type: ADME; conditions: dose 50 µg/ml
Klebsiella pneumoniae [3] = assay: Hormesis activity against Klebsiella pneumonia assessed as promotion of bacterial growth by measuring prolonged logarithmic growth phase at 3 to 6 ug/ml measured for 24 hrs in presence of 1 ug/ml tetracycline by OD600 based analysis; assay type: organism-based; conditions: in vivo, dose 3-6 µg/ml
Klebsiella pneumoniae [4] = assay: Hormesis activity against Klebsiella pneumoniae assessed as promotion of bacterial growth at 3 to 6 ug/ml measured for 24 hrs in presence of efflux pump inhibitor, CCCP and 1 to 2 ug/ml tetracycline by OD600 based analysis; assay type: ADME, organism-based; conditions: in vivo, dose 3-6 µg/ml
Enterobacter cloacae [5] = assay: Hormesis activity against Enterobacter cloacae assessed as promotion of bacterial growth up to 25 ug/ml measured for 24 hrs in presence of efflux pump inhibitor, CCCP and 8 ug/ml tetracycline by OD600 based analysis; assay type: ADME, organism-based; conditions: in vivo, dose <=25 µg/ml
Klebsiella pneumoniae [6] = assay: Hormesis activity against Klebsiella pneumoniae assessed as increase in antibiotic MIC by measuring azithromycin MIC at 3 ug/ml incubated for 12 hrs by OD600 based analysis (reference value: 1.5625 ug/ml); assay type: ADME, organism-based; conditions: in vivo, dose 3 µg/ml
Klebsiella pneumoniae [7] = assay: Hormesis activity against Klebsiella pneumoniae assessed as increase in antibiotic MIC by measuring ciprofloxacin MIC at 3 ug/ml incubated for 12 hrs by OD600 based analysis (reference value: 0.0390625 ug/ml); assay type: ADME, organism-based; conditions: in vivo, dose 3 µg/ml
Klebsiella pneumoniae [8] = assay: Hormesis activity against Klebsiella pneumoniae assessed as increase in antibiotic MIC by measuring atreonamMIC at 3 ug/ml incubated for 12 hrs by OD600 based analysis (reference value: 1.5625 ug/ml); assay type: ADME, organism-based; conditions: in vivo, dose 3 µg/ml
Klebsiella pneumoniae [9] = assay: Hormesis activity against overnight compound-treated Klebsiella pneumoniae assessed as increase in antibiotic MIC by measuring rifampicin MIC at 3 ug/ml incubated for 12 hrs by OD600 based analysis (reference value: 25 ug/ml); assay type: ADME, organism-based; conditions: in vivo, dose 3 µg/ml
Klebsiella pneumoniae [10] = assay: Hormesis activity against overnight compound-treated Klebsiella pneumoniae assessed as increase in antibiotic MIC by measuring azithromycin MIC at 3 ug/ml incubated for 12 hrs by OD600 based analysis (reference value: 1.5625 ug/ml); assay type: ADME, organism-based; conditions: in vivo, dose 3 µg/ml
Klebsiella pneumoniae [11] = assay: Hormesis activity against overnight compound-treated Klebsiella pneumoniae assessed as increase in antibiotic MIC by measuring streptomycin MIC at 3 ug/ml incubated for 12 hrs by OD600 based analysis (reference value: 0.78125 ug/ml); assay type: ADME, organism-based; conditions: in vivo, dose 3 µg/ml
Klebsiella pneumoniae [12] = assay: Hormesis activity against overnight compound-treated Klebsiella pneumoniae assessed as increase in antibiotic MIC by measuring cefotaxime MIC at 3 ug/ml incubated for 12 hrs by OD600 based analysis (reference value: 0.39625 ug/ml); assay type: ADME, organism-based; conditions: in vivo, dose 3 µg/ml
Klebsiella pneumoniae [13] = assay: Hormesis activity against Klebsiella pneumoniae deficient in KmrA gene expression assessed as increase in antibiotic MIC by measuring rifampicin MIC at 3 ug/ml incubated for 12 hrs by OD600 based analysis (reference value: 25 ug/ml); assay type: ADME, organism-based; conditions: in vivo, dose 3 µg/ml
Klebsiella pneumoniae [14] = assay: Hormesis activity against Klebsiella pneumoniae deficient in KmrA gene expression assessed as increase in antibiotic MIC by measuring streptomycin MIC at 3 ug/ml incubated for 12 hrs by OD600 based analysis (reference value: 0.78125 ug/ml); assay type: ADME, organism-based; conditions: in vivo, dose 3 µg/ml
Klebsiella pneumoniae [15] = assay: Hormesis activity against overnight compound-treated Klebsiella pneumoniae deficient in KmrA gene expression assessed as increase in antibiotic MIC by measuring rifampicin MIC at 3 ug/ml incubated for 12 hrs by OD600 based analysis (reference value: 25 ug/ml); assay type: ADME, organism-based; conditions: in vivo, dose 3 µg/ml
Enterobacter cloacae [16] = assay: Hormesis activity against Enterobacter cloacae assessed as increase in antibiotic MIC by measuring tetracycline MIC at 3 ug/ml incubated for 12 hrs by OD600 based analysis (reference value: 8 ug/ml); assay type: ADME, organism-based; conditions: in vivo, dose 3 µg/ml
Enterobacter cloacae [17] = assay: Hormesis activity against Enterobacter cloacae assessed as increase in antibiotic MIC by measuring azithromycin MIC at 3 ug/ml incubated for 12 hrs by OD600 based analysis (reference value: 6.25 ug/ml); assay type: ADME, organism-based; conditions: in vivo, dose 3 µg/ml
Enterobacter cloacae [18] = assay: Hormesis activity against Enterobacter cloacae assessed as increase in antibiotic MIC by measuring ciprofloxacin MIC at 3 ug/ml incubated for 12 hrs by OD600 based analysis (reference value: 0.0390625 ug/ml); assay type: ADME, organism-based; conditions: in vivo, dose 3 µg/ml
Enterobacter cloacae [19] = assay: Hormesis activity against Enterobacter cloacae assessed as increase in antibiotic MIC by measuring chloramphenicol MIC at 3 ug/ml incubated for 12 hrs by OD600 based analysis (reference value: 3.125 ug/ml); assay type: ADME, organism-based; conditions: in vivo, dose 3 µg/ml
Enterobacter cloacae [20] = assay: Hormesis activity against Enterobacter cloacae assessed as increase in antibiotic MIC by measuring ampicillin MIC at 3 ug/ml incubated for 12 hrs by OD600 based analysis (reference value: 25 ug/ml); assay type: ADME, organism-based; conditions: in vivo, dose 3 µg/ml
Enterobacter cloacae [21] = assay: Hormesis activity against overnight compound-treated Enterobacter cloacae assessed as increase in antibiotic MIC by measuring ciprofloxacin MIC at 3 ug/ml incubated for 12 hrs by OD600 based analysis (reference value: 0.0390625 ug/ml); assay type: ADME, organism-based; conditions: in vivo, dose 3 µg/ml
Enterobacter cloacae [22] = assay: Hormesis activity against overnight compound-treated Enterobacter cloacae assessed as increase in antibiotic MIC by measuring meropenem MIC at 3 ug/ml incubated for 12 hrs by OD600 based analysis (reference value: 0.1953 ug/ml); assay type: ADME, organism-based; conditions: in vivo, dose 3 µg/ml
Acinetobacter baumannii [23] = assay: Hormesis activity against Acinetobacter baumannii assessed as increase in antibiotic MIC by measuring streptomycin MIC at 3 ug/ml incubated for 12 hrs by OD600 based analysis (reference value: 400 ug/ml); assay type: ADME, organism-based; conditions: in vivo, dose 3 µg/ml
Acinetobacter baumannii [24] = assay: Hormesis activity against Acinetobacter baumannii assessed as increase in antibiotic MIC by measuring chloramphenicol MIC at 3 ug/ml incubated for 12 hrs by OD600 based analysis (reference value: 6.25 ug/ml); assay type: ADME, organism-based; conditions: in vivo, dose 3 µg/ml
Acinetobacter baumannii [25] = assay: Hormesis activity against Acinetobacter baumannii assessed as increase in antibiotic MIC by measuring atreonamMIC at 3 ug/ml incubated for 12 hrs by OD600 based analysis (reference value: 6.25 ug/ml); assay type: ADME, organism-based; conditions: in vivo, dose 3 µg/ml
Acinetobacter baumannii [26] = assay: Hormesis activity against overnight-compound treated Acinetobacter baumannii assessed as increase in antibiotic MIC by measuring tetracycline MIC at 3 ug/ml incubated for 12 hrs by OD600 based analysis (reference value: 240 ug/ml); assay type: ADME, organism-based; conditions: in vivo, dose 3 µg/ml
Acinetobacter baumannii [27] = assay: Hormesis activity against overnight-compound treated Acinetobacter baumannii assessed as increase in antibiotic MIC by measuring chloramphenicol MIC at 3 ug/ml incubated for 12 hrs by OD600 based analysis (reference value: 6.25 ug/ml); assay type: ADME, organism-based; conditions: in vivo, dose 3 µg/ml
Acinetobacter baumannii [28] = assay: Hormesis activity against overnight-compound treated Acinetobacter baumannii assessed as increase in antibiotic MIC by measuring meropenem MIC at 3 ug/ml incubated for 12 hrs by OD600 based analysis (reference value: 0.625 ug/ml); assay type: ADME, organism-based; conditions: in vivo, dose 3 µg/ml

fold change (FC) [2]: 2
MIC (Klebsiella pneumoniae [6]): 3.125 µg/mL
MIC (Klebsiella pneumoniae [7]): 0.07812 µg/mL
MIC (Klebsiella pneumoniae [8]): 1.5625 µg/mL
MIC (Klebsiella pneumoniae [9]): 50 µg/mL
MIC (Klebsiella pneumoniae [10]): 3.125 µg/mL
MIC (Klebsiella pneumoniae [11]): 3.125 µg/mL
MIC (Klebsiella pneumoniae [12]): 0.3962 µg/mL
MIC (Klebsiella pneumoniae [13]): 25 µg/mL
MIC (Klebsiella pneumoniae [14]): 0.7812 µg/mL
MIC (Klebsiella pneumoniae [15]): 25 µg/mL
MIC (Enterobacter cloacae [16]): 8 µg/mL
MIC (Enterobacter cloacae [17]): 6.25 µg/mL
MIC (Enterobacter cloacae [18]): 0.07812 µg/mL
MIC (Enterobacter cloacae [19]): 3.125 µg/mL
MIC (Enterobacter cloacae [20]): 25 µg/mL
MIC (Enterobacter cloacae [21]): 0.1562 µg/mL
MIC (Enterobacter cloacae [22]): 0.1953 µg/mL
MIC (Acinetobacter baumannii [23]): 400 µg/mL
MIC (Acinetobacter baumannii [24]): 6.25 µg/mL
MIC (Acinetobacter baumannii [25]): 6.25 µg/mL
MIC (Acinetobacter baumannii [26]): 360 µg/mL
MIC (Acinetobacter baumannii [27]): 6.25 µg/mL
MIC (Acinetobacter baumannii [28]): 0.625 µg/mL
SMILES: COc1ccc2cc3[n+](cc2c1OC)CCc1cc2c(cc1-3)OCO2 [BERBERINE]
Activity (Klebsiella pneumoniae [1]): Toxic
Activity (Klebsiella pneumoniae [3]): Toxic
Activity (Klebsiella pneumoniae [4]): Non-Toxic
Activity (Enterobacter cloacae [5]): Non-Toxic
